Assay results from patent US11866479B2, “HIV antibody derivatives with dual antiviral and immunomodulatory activities from CD4 and GP41” (priority 2016, dated 2024).

Columns and labels:
HIV-1 strain BaL = assay: Neutralization assay (TZM-bl, pseudovirus), BaL isolate; format: cell-based
Description: HIV-1 isolates NL4-3, BaL, AC10, SVBP6, SVBP8, SVBP11, SVBP12, SVBP14, SVBP15, SVBP17, SVBP18 and SVBP19 were generated as pseudoviruses using Env expression plasmids and the pSG3 vector. […] Cell-free virus neutralization by the antibody derivatives was tested by a standard TZM-bl based assay. […] Briefly, in a 96-well culture plate, 100 of previously diluted antibody derivatives were preincubated with 50 μL of pseudovirus stock, using 200 TCID50 (tissue culture infectious doses) at 37° C. for one hour. Then, 100 containing 10,000 TZM-bl luciferase-reporter target cells per well were added. Plates were cultured at 37° C. and 5% CO2 for 48 hours. Serial dilutions of the antibody derivatives were tested, from 1000 to 0.1 ng/mL. TZM-bl reporter cells were treated with dextran (Sigma-Aldrich, Saint Louis, Mo., USA) to enhance infectivity. A luciferase substrate, Britelite Plus (PerkinElmer, Inc., Waltham, Mass., USA), was used for the readout. Non-linear fit of neutralization data was calculated using normalized values fitted to a one site inhibition curve with variable Hill slope. All statistical analyses and non-linear fitting were performed using the GraphPad Prism v5.0 software.

[1] = test system: panel of HIV subtype B viruses; assay: Neutralization assay against panel of HIV subtype B viruses (SVBP isolates); format: cell-based, HIV-1
Description: HIV-1 isolates NL4-3, BaL, AC10, SVBP6, SVBP8, SVBP11, SVBP12, SVBP14, SVBP15, SVBP17, SVBP18 and SVBP19 were generated as pseudoviruses using Env expression plasmids and the pSG3 vector. […] Cell-free virus neutralization by the antibody derivatives was tested by a standard TZM-bl based assay. […] Briefly, in a 96-well culture plate, 100 of previously diluted antibody derivatives were preincubated with 50 μL of pseudovirus stock, using 200 TCID50 (tissue culture infectious doses) at 37° C. for one hour. Then, 100 containing 10,000 TZM-bl luciferase-reporter target cells per well were added. Plates were cultured at 37° C. and 5% CO2 for 48 hours. Serial dilutions of the antibody derivatives were tested, from 1000 to 0.1 ng/mL. TZM-bl reporter cells were treated with dextran (Sigma-Aldrich, Saint Louis, Mo., USA) to enhance infectivity. A luciferase substrate, Britelite Plus (PerkinElmer, Inc., Waltham, Mass., USA), was used for the readout. Non-linear fit of neutralization data was calculated using normalized values fitted to a one site inhibition curve with variable Hill slope. All statistical analyses and non-linear fitting were performed using the GraphPad Prism v5.0 software. […]

HIV-1 strain NL4-3 = assay: Neutralization assay (TZM-bl, pseudovirus), NL4-3 isolate; format: cell-based
Description: HIV-1 isolates NL4-3, BaL, AC10, SVBP6, SVBP8, SVBP11, SVBP12, SVBP14, SVBP15, SVBP17, SVBP18 and SVBP19 were generated as pseudoviruses using Env expression plasmids and the pSG3 vector. See Sanchez-Palomino S, et al., Vaccine 2011; 29:5250-5259. Cell-free virus neutralization by the antibody derivatives was tested by a standard TZM-bl based assay. See Li, 2005, supra. Briefly, in a 96-well culture plate, 100 of previously diluted antibody derivatives were preincubated with 50 μL of pseudovirus stock, using 200 TCID50 (tissue culture infectious doses) at 37° C. for one hour. Then, 100 containing 10,000 TZM-bl luciferase-reporter target cells per well were added. Plates were cultured at 37° C. and 5% CO2 for 48 hours. […] A luciferase substrate, Britelite Plus (PerkinElmer, Inc., Waltham, Mass., USA), was used for the readout. Non-linear fit of neutralization data was calculated using normalized values fitted to a one site inhibition curve with variable Hill slope. […]
Briefly, in a 96-well culture plate, 100 μL of previously diluted plasma samples were preincubated with 50 μL of pseudovirus stock, using 200 TCID50 at 37° C. for one hour. […] A luciferase substrate, Britelite Plus (PerkinElmer, Inc., Waltham, Mass., USA), was used for the readout. Non-linear fit of neutralization data was calculated using normalized values fitted to a one site inhibition curve with variable Hill slope. […]

MOLECULE-0: CD4-IgG1 fusion protein, SEQ ID NO:11
blocking the infectivity of BaL (in words) (HIV-1 strain BaL): lower neutralizing activity | neutralization of panel of HIV subtype B isolates (in words) [1]: unable to neutralize primary isolates at 100 ng/mL | blocking the infectivity of NL4-3 (in words) (HIV-1 strain NL4-3): lower neutralizing activity
